In ChEMBL document CHEMBL1135689, “Anthranilic acid amides: a novel class of antiangiogenic VEGF receptor kinase inhibitors” (J Med Chem, 2002):
“And” between values parts separate entries of the source, which are not always exact repeats. Equal entries are not always repeated.

How the values were obtained:
[1] = Mean % inhibition of induced angiogenesis by Vascular endothelial growth factor (VEGF) at a peroral dose of 50 mg/kg in mice; type: functional; details: Mus musculus, route oral
[2] = target: Fibroblast growth factor receptor 1 (Homo sapiens, UniProt P11362)
[3] = target: Angiopoietin-1 receptor (Homo sapiens, UniProt Q02763); experiment: In vitro inhibition of Tyrosine protein kinase receptor TIE-2 (Tek) expressed in baculovirus
Chain of Angiopoietin-1 receptor (Q02763 whole entry): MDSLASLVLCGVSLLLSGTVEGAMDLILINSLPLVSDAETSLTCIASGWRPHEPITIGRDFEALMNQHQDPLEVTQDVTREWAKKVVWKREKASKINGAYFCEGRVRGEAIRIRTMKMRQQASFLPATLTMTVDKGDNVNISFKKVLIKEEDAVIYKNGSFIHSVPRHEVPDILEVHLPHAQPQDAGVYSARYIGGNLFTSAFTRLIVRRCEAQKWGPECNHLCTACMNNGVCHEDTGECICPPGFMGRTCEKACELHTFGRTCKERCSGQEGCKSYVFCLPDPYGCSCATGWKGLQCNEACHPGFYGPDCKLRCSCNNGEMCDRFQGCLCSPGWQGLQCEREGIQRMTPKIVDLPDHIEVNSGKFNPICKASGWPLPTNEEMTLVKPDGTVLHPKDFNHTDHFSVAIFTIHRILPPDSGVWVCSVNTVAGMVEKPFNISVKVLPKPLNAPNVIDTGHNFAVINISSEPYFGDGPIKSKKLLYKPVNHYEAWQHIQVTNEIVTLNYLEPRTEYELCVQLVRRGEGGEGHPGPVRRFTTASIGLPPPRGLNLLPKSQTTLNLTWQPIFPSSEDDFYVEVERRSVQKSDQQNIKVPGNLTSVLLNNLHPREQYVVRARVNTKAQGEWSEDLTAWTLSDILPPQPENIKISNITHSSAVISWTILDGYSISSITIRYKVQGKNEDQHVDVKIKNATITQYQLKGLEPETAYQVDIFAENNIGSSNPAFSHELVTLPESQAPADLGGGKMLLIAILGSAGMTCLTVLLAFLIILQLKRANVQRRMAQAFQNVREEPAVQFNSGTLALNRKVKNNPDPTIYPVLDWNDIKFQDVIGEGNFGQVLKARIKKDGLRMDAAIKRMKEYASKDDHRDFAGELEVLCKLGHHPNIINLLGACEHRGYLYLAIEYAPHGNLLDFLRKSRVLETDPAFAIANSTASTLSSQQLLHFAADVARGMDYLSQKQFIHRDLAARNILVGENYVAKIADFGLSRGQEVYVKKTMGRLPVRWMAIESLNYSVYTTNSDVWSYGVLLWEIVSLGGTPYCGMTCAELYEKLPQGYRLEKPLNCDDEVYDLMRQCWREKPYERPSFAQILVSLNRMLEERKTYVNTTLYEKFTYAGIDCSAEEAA

[4] = target: Mast/stem cell growth factor receptor Kit (Homo sapiens, UniProt P10721)
[5] = target: Macrophage colony-stimulating factor 1 receptor (Homo sapiens, UniProt P07333)
[6] = system: B16; experiment: Mean % inhibition of lymph node metastasis in B16 mouse administration; type: functional
[7] = target: Insulin-like growth factor 1 receptor (Homo sapiens, UniProt P08069); experiment: In vitro inhibition of Insulin-like growth factor I receptor expressed in baculovirus
Chain of Insulin-like growth factor 1 receptor (P08069 31-736 limits assumed): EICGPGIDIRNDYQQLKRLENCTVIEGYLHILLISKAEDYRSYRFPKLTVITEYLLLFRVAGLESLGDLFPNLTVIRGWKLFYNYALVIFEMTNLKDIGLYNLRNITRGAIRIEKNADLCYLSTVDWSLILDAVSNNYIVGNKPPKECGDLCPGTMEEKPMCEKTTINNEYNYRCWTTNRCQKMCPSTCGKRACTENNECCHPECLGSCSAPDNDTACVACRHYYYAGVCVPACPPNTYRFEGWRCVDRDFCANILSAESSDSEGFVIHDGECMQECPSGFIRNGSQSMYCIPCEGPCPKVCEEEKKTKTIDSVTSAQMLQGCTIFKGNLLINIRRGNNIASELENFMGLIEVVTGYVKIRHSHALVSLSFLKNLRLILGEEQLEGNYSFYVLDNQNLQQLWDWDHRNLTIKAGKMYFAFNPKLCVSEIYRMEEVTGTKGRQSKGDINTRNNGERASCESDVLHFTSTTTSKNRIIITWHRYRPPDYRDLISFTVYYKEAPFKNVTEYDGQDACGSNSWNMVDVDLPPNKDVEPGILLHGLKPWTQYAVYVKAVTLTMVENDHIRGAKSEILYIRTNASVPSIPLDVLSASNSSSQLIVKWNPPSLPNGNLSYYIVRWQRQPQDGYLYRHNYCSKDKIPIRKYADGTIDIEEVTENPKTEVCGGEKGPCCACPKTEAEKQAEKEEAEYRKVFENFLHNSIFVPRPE
Chain of Insulin-like growth factor 1 receptor (P08069 741-1367 limits assumed): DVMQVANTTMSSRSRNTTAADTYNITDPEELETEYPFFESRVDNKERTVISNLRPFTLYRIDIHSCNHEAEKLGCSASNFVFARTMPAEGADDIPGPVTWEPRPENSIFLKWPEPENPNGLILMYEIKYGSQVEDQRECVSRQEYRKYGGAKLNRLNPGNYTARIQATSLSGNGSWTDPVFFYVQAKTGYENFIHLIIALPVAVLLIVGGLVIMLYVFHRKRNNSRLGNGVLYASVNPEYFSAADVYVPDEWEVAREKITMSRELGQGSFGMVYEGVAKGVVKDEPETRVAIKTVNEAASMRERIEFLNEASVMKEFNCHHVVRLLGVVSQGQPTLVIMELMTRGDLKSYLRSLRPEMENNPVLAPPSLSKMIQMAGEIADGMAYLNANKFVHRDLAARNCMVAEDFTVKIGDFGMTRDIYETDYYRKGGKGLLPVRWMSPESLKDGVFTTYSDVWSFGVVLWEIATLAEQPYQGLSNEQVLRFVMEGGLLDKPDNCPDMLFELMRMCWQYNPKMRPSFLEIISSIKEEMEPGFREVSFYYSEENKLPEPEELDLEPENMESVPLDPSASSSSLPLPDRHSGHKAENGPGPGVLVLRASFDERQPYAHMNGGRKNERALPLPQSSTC

[8] = system: B16; experiment: Mean % inhibition of primary tumor growth in B16 mouse administration; type: functional
[9] = target: Tyrosine-protein kinase ABL1 (Homo sapiens, UniProt P00519)
[10] = target: Cyclin-dependent kinase 1 (Homo sapiens, UniProt P06493); experiment: In vitro inhibition of Cyclin-dependent kinase 1 (CDK-1) expressed in baculovirus
Chain of Cyclin-dependent kinase 1 (P06493 whole entry): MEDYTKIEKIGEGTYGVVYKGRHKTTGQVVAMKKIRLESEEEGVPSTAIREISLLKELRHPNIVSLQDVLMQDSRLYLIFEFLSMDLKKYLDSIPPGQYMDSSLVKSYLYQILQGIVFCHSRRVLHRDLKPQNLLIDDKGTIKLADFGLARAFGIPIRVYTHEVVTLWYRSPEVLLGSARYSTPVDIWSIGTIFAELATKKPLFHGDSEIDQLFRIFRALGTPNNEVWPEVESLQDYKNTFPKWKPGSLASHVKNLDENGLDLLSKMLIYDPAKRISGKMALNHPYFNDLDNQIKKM

[11] = target: Proto-oncogene tyrosine-protein kinase Src (Homo sapiens, UniProt P12931)
Chain of Proto-oncogene tyrosine-protein kinase Src (P12931 2-536 limits assumed): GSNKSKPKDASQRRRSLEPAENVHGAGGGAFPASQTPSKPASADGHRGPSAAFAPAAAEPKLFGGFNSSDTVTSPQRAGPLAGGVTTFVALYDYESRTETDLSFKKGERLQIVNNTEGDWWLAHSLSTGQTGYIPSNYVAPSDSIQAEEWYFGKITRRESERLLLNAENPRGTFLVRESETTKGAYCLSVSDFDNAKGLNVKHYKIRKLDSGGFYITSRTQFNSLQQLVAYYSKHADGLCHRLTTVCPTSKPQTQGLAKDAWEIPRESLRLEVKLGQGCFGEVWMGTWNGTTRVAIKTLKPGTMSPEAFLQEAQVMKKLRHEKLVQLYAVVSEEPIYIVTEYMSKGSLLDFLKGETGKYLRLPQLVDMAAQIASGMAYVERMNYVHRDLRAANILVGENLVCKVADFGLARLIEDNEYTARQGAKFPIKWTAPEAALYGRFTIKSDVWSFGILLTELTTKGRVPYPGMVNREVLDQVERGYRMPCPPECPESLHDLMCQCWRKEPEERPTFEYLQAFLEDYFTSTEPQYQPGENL

[12] = target: Hepatocyte growth factor receptor (Homo sapiens, UniProt P08581); experiment: In vitro inhibition of Met proto-oncogene tyrosine kinase (c-Met) expressed in baculovirus
[13] = system: B16; experiment: Mean % inhibition of lymph node metastasis in B16 mouse administration.; type: functional
[14] = target: Fibroblast growth factor receptor 1 (Mus musculus) (UniProt P16092); experiment: Mean % inhibition of induced angiogenesis by Heparin-binding growth factor 2 after intraperitoneal dose of 100 mg/kg in mice; type: functional, organism-based; parameters: dose 100 mg/kg
[15] = target: Vascular endothelial growth factor receptor 3 (Homo sapiens, UniProt P35916); experiment: In vitro inhibition of Vascular endothelial growth factor receptor 3 [VEGFR-3(Flt-4)] expressed in baculovirus
[16] = Mean % inhibition of induced angiogenesis by Vascular endothelial growth factor (VEGF) after intraperitoneal dose of 100 mg/kg in mice; type: functional; details: Mus musculus, ip
[17] = target: Platelet-derived growth factor receptor beta (Homo sapiens, UniProt P09619)
[18] = organism: Mus musculus
[19] = organism: Mus musculus; remark: listed apart in the source
[20] = target: Vascular endothelial growth factor receptor 1 (Homo sapiens, UniProt P17948)
[21] = organism: Mus musculus; remark: listed apart in the source
[22] = target: T1, Vascular endothelial growth factor receptor 2 (Homo sapiens, UniProt P35968)
T1 sequence (P35968 whole entry): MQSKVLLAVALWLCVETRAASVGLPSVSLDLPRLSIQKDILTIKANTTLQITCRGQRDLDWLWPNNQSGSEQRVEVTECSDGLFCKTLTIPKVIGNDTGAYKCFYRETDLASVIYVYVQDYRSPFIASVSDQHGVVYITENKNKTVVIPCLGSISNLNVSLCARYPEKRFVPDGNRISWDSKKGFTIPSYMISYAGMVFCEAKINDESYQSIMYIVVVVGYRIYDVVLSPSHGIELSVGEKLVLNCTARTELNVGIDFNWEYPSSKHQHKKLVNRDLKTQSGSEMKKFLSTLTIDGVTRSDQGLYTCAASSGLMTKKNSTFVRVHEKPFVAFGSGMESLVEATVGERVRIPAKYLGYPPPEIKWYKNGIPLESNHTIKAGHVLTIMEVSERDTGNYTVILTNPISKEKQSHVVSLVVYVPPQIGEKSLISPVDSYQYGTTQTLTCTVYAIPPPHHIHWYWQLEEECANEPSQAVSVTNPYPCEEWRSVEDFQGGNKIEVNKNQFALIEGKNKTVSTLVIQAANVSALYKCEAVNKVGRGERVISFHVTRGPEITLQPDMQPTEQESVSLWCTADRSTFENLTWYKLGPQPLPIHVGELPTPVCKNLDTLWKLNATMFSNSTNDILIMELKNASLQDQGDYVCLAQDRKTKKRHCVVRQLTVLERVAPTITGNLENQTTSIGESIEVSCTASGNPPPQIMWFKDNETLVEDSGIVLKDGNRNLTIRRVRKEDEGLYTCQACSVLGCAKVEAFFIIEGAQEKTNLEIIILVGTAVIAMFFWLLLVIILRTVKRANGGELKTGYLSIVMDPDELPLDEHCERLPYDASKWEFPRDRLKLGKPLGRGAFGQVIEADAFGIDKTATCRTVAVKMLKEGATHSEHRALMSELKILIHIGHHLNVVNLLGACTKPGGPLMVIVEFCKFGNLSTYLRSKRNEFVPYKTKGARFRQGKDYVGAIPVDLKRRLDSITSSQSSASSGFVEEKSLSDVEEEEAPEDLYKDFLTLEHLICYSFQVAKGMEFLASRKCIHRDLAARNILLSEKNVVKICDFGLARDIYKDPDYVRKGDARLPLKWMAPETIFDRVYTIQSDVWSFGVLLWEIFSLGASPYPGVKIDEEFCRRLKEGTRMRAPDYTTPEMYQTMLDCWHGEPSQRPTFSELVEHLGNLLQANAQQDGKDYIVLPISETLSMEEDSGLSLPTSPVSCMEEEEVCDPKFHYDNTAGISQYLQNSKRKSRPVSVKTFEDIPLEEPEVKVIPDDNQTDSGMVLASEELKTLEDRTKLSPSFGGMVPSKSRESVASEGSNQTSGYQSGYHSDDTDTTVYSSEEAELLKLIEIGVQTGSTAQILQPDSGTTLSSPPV

[23] = organism: Mus musculus; remark: listed apart in the source
[24] = target: T1, Vascular endothelial growth factor receptor 2; remark: listed apart in the source

SMILES	inhibition in vivo at 50 mg/kg [1]	IC50 [2]	IC50 [3]	IC50 [4]	IC50 [5]	Inhibition [6]	IC50 [7]	Inhibition [8]	IC50 [9]	IC50 [10]	IC50 [11]	IC50 [12]	IC50 [15]	also measured
O=C(Nc1cccc(C(F)(F)F)c1)c1ccccc1NCc1ccncc1	84%	> 10000 nM	> 10000 nM	236 nM	380 nM	85%	> 10000 nM	44%	2820 nM	> 10000 nM	> 10000 nM	> 10000 nM	–	–
COc1cc2/c(=N/c3ccc(Br)cc3F)nc[nH]c2cc1OCC1CCN(C)CC1 [VANDETANIB]	71%	–	–	–	–	–	–	60%	–	–	–	–	–	Inhibition [13]: 61%
Clc1ccc(Nc2nnc(Cc3ccncc3)c3ccccc23)cc1.O=C(O)CCC(=O)O	68%	–	–	–	–	55%	–	34%	–	–	–	–	–	–
Cc1cc(C)c(/C=C2\C(=O)Nc3ccccc32)[nH]1 [SEMAXANIB]	–	–	> 10000 nM	–	–	–	> 10000 nM	–	–	> 10000 nM	–	–	50 nM	inhibition [14]: 87%; inhibition in vivo at 100 mg/kg [16]: 65%
O=C(Nc1cccc(-c2cncc3ccccc23)c1)c1ccccc1NCc1ccncc1	100%	5100 nM	6800 nM	105 nM	99 nM	–	6400 nM	39% and 73%	5330 nM	> 10000 nM	> 10000 nM	> 10000 nM	52 nM	IC50 [17]: 357 nM; Plasma concentration [18]: 1.6 µM l-1; Plasma concentration [19]: 1.9 µM l-1; IC50 [20]: 130 nM; Plasma concentration [21]: 3.4 µM l-1; IC50 [22]: 1.16 nM; Plasma concentration [23]: 1.9 µM l-1; IC50 [24]: 9 nM
